Experimental data published in ChEMBL document CHEMBL1201862, “PubChem BioAssay data set” (2004).
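Dose response: 5 concentrations. Exposure: 48 h. Format: 96-well plates. Endpoint: linear interpolation; highest concentration if not reached. Abbreviation: GI50, concentration required for 50% inhibition of growth.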 Active and inactive are the calls of the source. No stated cut-off is given here; in the data, active = GI50 up to about 1.1 µM and inactive = higher.

Columns and labels:
Assay in all cases: DTP human tumour cell line panel, 48 h
786-0 = system: 786-0
A498 = system: A498
A549 = system: A549
ACHN = system: ACHN
CCRF-CEM = system: CCRF-CEM
COLO 205 = system: COLO 205
DLD-1 = system: DLD-1
DMS-114 = system: DMS-114
DMS-273 = system: DMS-273
EKVX = system: EKVX
HCT-116 = system: HCT-116
HCT-15 = system: HCT-15
HL-60 = system: HL-60
HOP-18 = system: HOP-18
HOP-62 = system: HOP-62
HOP-92 = system: HOP-92
HT-29 = system: HT-29
IGROV-1 = system: IGROV-1
K562 = system: K562
KM-20L2 = system: KM-20L2
KM12 = system: KM12
LOX IMVI = system: LOX IMVI
LXFL 529 = system: LXFL 529
M14 = system: M14
M19-MEL = system: M19-MEL
MOLT-4 = system: MOLT-4
NCI-H226 = system: NCI-H226
NCI-H23 = system: NCI-H23
NCI-H460 = system: NCI-H460
NCI-H522 = system: NCI-H522
OVCAR-4 = system: OVCAR-4
OVCAR-5 = system: OVCAR-5
OVCAR-8 = system: OVCAR-8
RPMI-8226 = system: RPMI-8226
RXF 393 = system: RXF 393
SF-268 = system: SF-268
SF-295 = system: SF-295
SF-539 = system: SF-539
SK-MEL-28 = system: SK-MEL-28
SK-MEL-5 = system: SK-MEL-5
SN12C = system: SN12C
SNB-19 = system: SNB-19
SNB-75 = system: SNB-75
SNB-78 = system: SNB-78
SR = system: SR
SW-620 = system: SW-620
U-251 = system: U-251
UACC-257 = system: UACC-257
UACC-62 = system: UACC-62
CAKI-1 = system: CAKI-1
Malme-3M = system: Malme-3M
OVCAR-3 = system: OVCAR-3
SK-MEL-2 = system: SK-MEL-2
SK-OV-3 = system: SK-OV-3
TK-10 = system: TK-10
UO-31 = system: UO-31
HCC 2998 = system: HCC 2998

## CC1(C)OC2C(O1)[C@H]1OC(C(Cl)(Cl)Cl)=N[C@H]1C(I)[C@H]2N1C(=O)c2ccccc2C1=O (some centres undefined)
786-0
  GI50: > 100 µM (inactive)
A498
  GI50: > 100 µM (inactive)
A549
  GI50: 32.6 µM (inactive)
ACHN
  GI50: 65.6 µM (inactive)
CCRF-CEM
  GI50: 41.4 µM (inactive)
COLO 205
  GI50: 33.6 µM (inactive)
DLD-1
  GI50: > 100 µM (inactive)
DMS-114
  GI50: 30.6 µM (inactive)
DMS-273
  GI50: 52.1 µM (inactive)
EKVX
  GI50: 79.3 µM (inactive)
HCT-116
  GI50: 47.1 µM (inactive)
HCT-15
  GI50: 55.1 µM
HL-60
  GI50: 17.9 µM (inactive)
HOP-18
  GI50: > 100 µM (inactive)
HOP-62
  GI50: > 100 µM (inactive)
HOP-92
  GI50: 40.6 µM (inactive)
HT-29
  GI50: 59.4 µM (inactive)
IGROV-1
  GI50: 25.5 µM (inactive)
K562
  GI50: 36.7 µM (inactive)
KM-20L2
  GI50: 60.4 µM (inactive)
KM12
  GI50: 49.7 µM (inactive)
LOX IMVI
  GI50: 51.2 µM (inactive)
LXFL 529
  GI50: 50.2 µM (inactive)
M14
  GI50: 69.3 µM (inactive)
M19-MEL
  GI50: 69.8 µM (inactive)
MOLT-4
  GI50: 26.1 µM (inactive)
NCI-H226
  GI50: > 100 µM (inactive)
NCI-H23
  GI50: 58.2 µM (inactive)
NCI-H460
  GI50: 54.6 µM (inactive)
NCI-H522
  GI50: 24.5 µM (inactive)
OVCAR-4
  GI50: 24.1 µM (inactive)
OVCAR-5
  GI50: > 100 µM (inactive)
OVCAR-8
  GI50: > 100 µM (inactive)
RPMI-8226
  GI50: 32.7 µM (inactive)
RXF 393
  GI50: 28.9 µM (inactive)
SF-268
  GI50: 71.6 µM (inactive)
SF-295
  GI50: 56.4 µM (inactive)
SF-539
  GI50: > 100 µM (inactive)
SK-MEL-28
  GI50: 92.3 µM (inactive)
SK-MEL-5
  GI50: 48.9 µM (inactive)
SN12C
  GI50: 74.8 µM (inactive)
SNB-19
  GI50: > 100 µM (inactive)
SNB-75
  GI50: 56.9 µM (inactive)
SNB-78
  GI50: 73.3 µM (inactive)
SR
  GI50: 23.1 µM (inactive)
SW-620
  GI50: > 100 µM (inactive)
U-251
  GI50: 84.9 µM (inactive)
UACC-257
  GI50: 36.1 µM (inactive)
UACC-62
  GI50: 54.5 µM (inactive)

## CSc1nc(NC2OC(COC(C)=O)C(OC(C)=O)C(OC(C)=O)C2OC(C)=O)c(-c2csc(N)n2)c(=O)n1C (centres undefined)
786-0
  GI50: 18.5 µM (inactive)
A498
  GI50: > 100 µM (inactive)
A549
  GI50: 43.4 µM (inactive)
ACHN
  GI50: 31.5 µM (inactive)
CAKI-1
  GI50: 31.3 µM (inactive)
CCRF-CEM
  GI50: > 100 µM (inactive)
COLO 205
  GI50: > 100 µM (inactive)
DLD-1
  GI50: 44.8 µM (inactive)
DMS-114
  GI50: 34.8 µM (inactive)
HCT-116
  GI50: 31 µM (inactive)
HCT-15
  GI50: 97.1 µM
HL-60
  GI50: > 100 µM (inactive)
HOP-18
  GI50: 16.6 µM (inactive)
HOP-62
  GI50: 24.2 µM (inactive)
HOP-92
  GI50: 23.5 µM (inactive)
HT-29
  GI50: > 100 µM (inactive)
IGROV-1
  GI50: 34.1 µM (inactive)
K562
  GI50: > 100 µM (inactive)
KM-20L2
  GI50: > 100 µM (inactive)
KM12
  GI50: > 100 µM (inactive)
LOX IMVI
  GI50: 93.3 µM (inactive)
LXFL 529
  GI50: 31.7 µM (inactive)
M14
  GI50: 39.1 µM (inactive)
M19-MEL
  GI50: 47.6 µM (inactive)
MOLT-4
  GI50: > 100 µM (inactive)
Malme-3M
  GI50: 28.9 µM (inactive)
NCI-H226
  GI50: 15.7 µM (inactive)
NCI-H23
  GI50: 39.3 µM (inactive)
NCI-H460
  GI50: 39.1 µM (inactive)
NCI-H522
  GI50: 56.2 µM (inactive)
OVCAR-3
  GI50: 54 µM (inactive)
OVCAR-4
  GI50: 21.8 µM (inactive)
OVCAR-5
  GI50: > 100 µM (inactive)
OVCAR-8
  GI50: 26.1 µM (inactive)
RPMI-8226
  GI50: > 100 µM (inactive)
SF-268
  GI50: 22.5 µM (inactive)
SF-295
  GI50: 33.6 µM (inactive)
SF-539
  GI50: 25.2 µM (inactive)
SK-MEL-28
  GI50: 37.7 µM (inactive)
SK-MEL-2
  GI50: 28.6 µM (inactive)
SK-MEL-5
  GI50: 57.5 µM (inactive)
SK-OV-3
  GI50: 50.7 µM (inactive)
SN12C
  GI50: 49.5 µM (inactive)
SNB-19
  GI50: 56.6 µM (inactive)
SNB-75
  GI50: 18 µM (inactive)
SNB-78
  GI50: 22.4 µM (inactive)
SR
  GI50: > 100 µM (inactive)
SW-620
  GI50: > 100 µM (inactive)
TK-10
  GI50: > 100 µM (inactive)
U-251
  GI50: 34.3 µM (inactive)
UACC-257
  GI50: 32.9 µM (inactive)
UACC-62
  GI50: 26.1 µM (inactive)
UO-31
  GI50: 24.6 µM (inactive)

## CSc1nc(O)c2cn(Cc3ccccc3)nc2n1
786-0
  GI50: > 100 µM (inactive)
A498
  GI50: > 100 µM (inactive)
A549
  GI50: > 100 µM (inactive)
ACHN
  GI50: > 76.4 µM (inactive)
CAKI-1
  GI50: 41 µM (inactive)
CCRF-CEM
  GI50: 44 µM (inactive)
COLO 205
  GI50: > 100 µM (inactive)
DLD-1
  GI50: > 70.5 µM (inactive)
DMS-114
  GI50: > 100 µM (inactive)
DMS-273
  GI50: > 100 µM (inactive)
EKVX
  GI50: > 100 µM (inactive)
HCC 2998
  GI50: > 100 µM (inactive)
HCT-116
  GI50: > 100 µM (inactive)
HCT-15
  GI50: > 75.3 µM
HL-60
  GI50: > 100 µM (inactive)
HOP-18
  GI50: > 100 µM (inactive)
HOP-62
  GI50: > 100 µM (inactive)
HOP-92
  GI50: 71.6 µM (inactive)
HT-29
  GI50: 98.2 µM (inactive)
IGROV-1
  GI50: > 100 µM (inactive)
K562
  GI50: 77.8 µM (inactive)
KM-20L2
  GI50: > 67.5 µM (inactive)
KM12
  GI50: > 100 µM (inactive)
LOX IMVI
  GI50: > 100 µM (inactive)
LXFL 529
  GI50: 58.6 µM (inactive)
M14
  GI50: > 91.6 µM (inactive)
M19-MEL
  GI50: > 100 µM (inactive)
MOLT-4
  GI50: > 100 µM (inactive)
Malme-3M
  GI50: > 100 µM (inactive)
NCI-H226
  GI50: > 100 µM (inactive)
NCI-H23
  GI50: > 100 µM (inactive)
NCI-H460
  GI50: > 100 µM (inactive)
NCI-H522
  GI50: > 100 µM (inactive)
OVCAR-3
  GI50: > 100 µM (inactive)
OVCAR-4
  GI50: > 100 µM (inactive)
OVCAR-5
  GI50: > 100 µM (inactive)
OVCAR-8
  GI50: > 100 µM (inactive)
RPMI-8226
  GI50: > 100 µM (inactive)
RXF 393
  GI50: > 91 µM (inactive)
SF-268
  GI50: > 100 µM (inactive)
SF-295
  GI50: > 100 µM (inactive)
SF-539
  GI50: > 100 µM (inactive)
SK-MEL-28
  GI50: > 100 µM (inactive)
SK-MEL-2
  GI50: > 100 µM (inactive)
SK-MEL-5
  GI50: > 100 µM (inactive)
SK-OV-3
  GI50: > 100 µM (inactive)
SN12C
  GI50: > 100 µM (inactive)
SNB-19
  GI50: > 100 µM (inactive)
SNB-75
  GI50: > 86.1 µM (inactive)
SNB-78
  GI50: > 100 µM (inactive)
SR
  GI50: > 100 µM (inactive)
SW-620
  GI50: > 100 µM (inactive)
TK-10
  GI50: > 61.7 µM (inactive)
U-251
  GI50: > 100 µM (inactive)
UACC-257
  GI50: > 100 µM (inactive)
UACC-62
  GI50: > 100 µM (inactive)
UO-31
  GI50: > 87.3 µM (inactive)
